# Experiment: Inhibition of virion associated RT activity relative to untreated, infected control in cord blood mononuclear cells (CBMC) infected with HIV -1 TC354 strain
row,SMILES,IC50 [µM]
1,CC[C@@H](C)[C@@H]1NC(=O)[C@@H](NC[C@@H](O)[C@H](Cc2ccccc2)NC(=O)[C@@H](NC(=O)c2ccc3ccccc3n2)C(C)C)Cc2ccc(cc2)OCCCNC1=O,0.095
2,"O=C1N(Cc2ccc(CO)cc2)[C@H](Cc2ccccc2)[C@H](O)[C@@H](O)[C@@H](Cc2ccccc2)N1Cc1ccc(CO)cc1 [(4R,5S,6S,7R)-4,7-dibenzyl-5,6-dihydroxy-1,3-bis({[4-(hydroxymethyl)phenyl]methyl})-1,3-diazepan-2-one]",0.11
